One series can be described thus: physchem. The format is physicochemical. The text has this:
(§1) In some embodiments, the one or more organic compounds includes cyclodextrin or a cyclodextrin derivative. In some embodiments, the one or more organic compounds includes hydroxypropyl-beta-cyclodextrin (HPBCD). In some embodiments, HPBCD is provided in a concentration ranging from about 0.49 to about 0.55 wt. %, including, for example, 0.50%, 0.51%, 0.52%, 0.53%, and 0.54%. […] The low solubility of melatonin can lead to limited absorption and bioavailability. With the addition of HPBCD, the solubility of melatonin is improved to about 10 mg/mL. In an aqueous solution in which HPBCD is present at a concentration ranging from about 0.49 to about 0.55 wt. %, HPBCD monomers have a hydrodynamic size of 10 nm and aggregates of HPBCD form up to 100 nm in diameter (measured via dynamic light scattering).

The nature of another series: log P of melatonin. The format is physicochemical.
From the text: as §1

In brackets after ≈: the same amount, converted by molar mass. Like-named read-outs stand apart in the source and are kept apart here.

Drawing on patent publication US20230364175A1 (priority 2022, published 2023), this text covers solubility and logP for 1 compound.

For orientation: solubility means the dissolved amount per volume that the medium holds. A lower solubility goes with a poorly soluble substance. The logP is a log measure of how a compound divides between an organic and an aqueous phase. Low readings indicate lower lipophilicity, high ones higher lipophilicity.

On to `COc1ccc2[nH]cc(CCNC(C)=O)c2c1` [melatonin], for which the solubility is about 100 µg/mL (≈ 0.431 mM) in the series “physchem” and about 10000 µg/mL (≈ 43.1 mM) in the series “physchem” (aqueous with cosolvent or surfactant or cyclodextrin). The compound also returned a logP in the series “log P of melatonin” of 1.6.
